Reference: PMC5666424, “Marine-Derived 2-Aminoimidazolone Alkaloids. Leucettamine B-Related Polyandrocarpamines Inhibit Mammalian and Protozoan DYRK & CLK Kinases” (Marine Drugs, 2017)

Key:
Test in all cases: KinomeScan
Format in all cases: binding
Conditions in all cases: 1 μM
[1] = molecular target: T1, AAK1 (Homo sapiens, UniProt Q2M2I8)
T1 construct: purchased DiscoverX (KINOMEscan)

[2] = molecular target: T2, ABL1(H396P)-phosphorylated (Homo sapiens, UniProt P00519, H396P)
T2 construct: purchased DiscoverX (KINOMEscan)

[3] = molecular target: T3, ABL1(M351T)-phosphorylated (Homo sapiens, UniProt P00519, M351T)
T3 construct: purchased DiscoverX (KINOMEscan)

[4] = molecular target: T4, ASK2 (Homo sapiens, UniProt O95382)
T4 construct: purchased DiscoverX (KINOMEscan)
T4 sequence (O95382 whole entry): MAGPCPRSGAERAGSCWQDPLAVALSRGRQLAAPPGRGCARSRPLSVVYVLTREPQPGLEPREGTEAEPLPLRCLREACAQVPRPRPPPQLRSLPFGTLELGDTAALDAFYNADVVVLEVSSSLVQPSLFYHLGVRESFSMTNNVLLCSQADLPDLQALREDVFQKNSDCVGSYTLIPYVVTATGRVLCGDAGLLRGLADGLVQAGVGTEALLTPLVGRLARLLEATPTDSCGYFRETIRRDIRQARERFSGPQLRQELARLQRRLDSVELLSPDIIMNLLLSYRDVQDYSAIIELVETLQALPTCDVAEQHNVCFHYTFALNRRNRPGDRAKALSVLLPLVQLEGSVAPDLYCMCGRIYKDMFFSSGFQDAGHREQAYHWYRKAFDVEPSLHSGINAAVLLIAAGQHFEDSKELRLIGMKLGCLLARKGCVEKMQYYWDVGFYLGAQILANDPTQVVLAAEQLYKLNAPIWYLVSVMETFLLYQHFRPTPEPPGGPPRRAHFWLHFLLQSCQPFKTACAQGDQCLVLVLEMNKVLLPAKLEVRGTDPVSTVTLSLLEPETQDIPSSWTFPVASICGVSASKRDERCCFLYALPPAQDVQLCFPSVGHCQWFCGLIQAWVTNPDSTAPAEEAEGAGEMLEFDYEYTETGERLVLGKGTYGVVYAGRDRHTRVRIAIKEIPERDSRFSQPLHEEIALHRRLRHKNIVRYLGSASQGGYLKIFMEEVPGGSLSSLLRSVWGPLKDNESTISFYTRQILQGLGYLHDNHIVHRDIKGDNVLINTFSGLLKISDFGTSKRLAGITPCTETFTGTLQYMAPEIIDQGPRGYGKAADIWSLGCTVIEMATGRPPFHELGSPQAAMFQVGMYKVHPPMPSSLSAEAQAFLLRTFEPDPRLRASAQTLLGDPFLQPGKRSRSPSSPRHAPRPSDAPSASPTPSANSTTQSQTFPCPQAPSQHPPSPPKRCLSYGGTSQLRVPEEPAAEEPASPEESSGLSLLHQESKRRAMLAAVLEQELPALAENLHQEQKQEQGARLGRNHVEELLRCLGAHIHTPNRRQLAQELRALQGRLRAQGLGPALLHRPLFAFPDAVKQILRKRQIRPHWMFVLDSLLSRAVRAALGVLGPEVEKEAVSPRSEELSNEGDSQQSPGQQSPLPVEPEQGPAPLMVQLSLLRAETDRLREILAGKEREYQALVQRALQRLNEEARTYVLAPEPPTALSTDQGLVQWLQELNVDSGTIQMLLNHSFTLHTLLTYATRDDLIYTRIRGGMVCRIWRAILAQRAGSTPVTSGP

[5] = molecular target: T5, BMPR1B (Homo sapiens, UniProt O00238)
T5 construct: purchased DiscoverX (KINOMEscan)

[6] = molecular target: T6, CAMK2B (Homo sapiens, UniProt Q13554)
T6 construct: purchased DiscoverX (KINOMEscan)
T6 sequence (Q13554 whole entry): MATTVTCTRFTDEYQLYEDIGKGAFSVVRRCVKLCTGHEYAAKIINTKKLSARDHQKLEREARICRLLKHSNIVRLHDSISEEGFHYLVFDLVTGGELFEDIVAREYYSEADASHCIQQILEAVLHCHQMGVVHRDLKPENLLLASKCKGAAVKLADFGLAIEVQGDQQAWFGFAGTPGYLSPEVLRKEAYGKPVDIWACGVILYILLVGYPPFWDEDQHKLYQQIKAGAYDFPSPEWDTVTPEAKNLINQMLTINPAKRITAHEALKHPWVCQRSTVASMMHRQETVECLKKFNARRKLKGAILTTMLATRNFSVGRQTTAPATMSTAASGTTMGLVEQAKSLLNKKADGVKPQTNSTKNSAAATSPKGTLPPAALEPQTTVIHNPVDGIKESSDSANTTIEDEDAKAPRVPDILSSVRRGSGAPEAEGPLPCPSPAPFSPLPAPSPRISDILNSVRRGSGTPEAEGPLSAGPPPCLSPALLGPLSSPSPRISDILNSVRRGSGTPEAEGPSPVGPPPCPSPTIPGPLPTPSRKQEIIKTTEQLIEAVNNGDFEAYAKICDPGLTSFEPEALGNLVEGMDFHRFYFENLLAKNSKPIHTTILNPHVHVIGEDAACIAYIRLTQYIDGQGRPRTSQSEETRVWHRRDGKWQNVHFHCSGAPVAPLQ

[7] = molecular target: T7, CDK2 (Homo sapiens, UniProt P24941)
T7 construct: purchased DiscoverX (KINOMEscan)

[8] = molecular target: T8, CSK (Homo sapiens, UniProt P41240)
T8 construct: purchased DiscoverX (KINOMEscan)
T8 sequence (P41240 whole entry): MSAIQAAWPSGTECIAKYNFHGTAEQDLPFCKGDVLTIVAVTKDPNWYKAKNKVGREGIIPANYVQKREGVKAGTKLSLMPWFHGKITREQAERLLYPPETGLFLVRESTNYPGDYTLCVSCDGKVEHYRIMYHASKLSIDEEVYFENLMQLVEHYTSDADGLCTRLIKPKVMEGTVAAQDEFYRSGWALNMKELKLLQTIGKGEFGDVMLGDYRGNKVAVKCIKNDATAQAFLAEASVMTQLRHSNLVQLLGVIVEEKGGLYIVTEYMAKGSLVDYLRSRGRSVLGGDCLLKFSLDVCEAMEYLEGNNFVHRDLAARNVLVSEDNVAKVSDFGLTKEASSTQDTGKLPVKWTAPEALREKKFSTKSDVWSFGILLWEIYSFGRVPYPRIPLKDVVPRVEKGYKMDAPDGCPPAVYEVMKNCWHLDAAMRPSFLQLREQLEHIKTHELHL

[9] = molecular target: T9, CSNK1G1 (Homo sapiens, UniProt Q9HCP0)
T9 construct: purchased DiscoverX (KINOMEscan)

[10] = molecular target: T10, CSNK2A1 (Homo sapiens, UniProt P68400)
T10 construct: purchased DiscoverX (KINOMEscan)
T10 sequence (P68400 whole entry): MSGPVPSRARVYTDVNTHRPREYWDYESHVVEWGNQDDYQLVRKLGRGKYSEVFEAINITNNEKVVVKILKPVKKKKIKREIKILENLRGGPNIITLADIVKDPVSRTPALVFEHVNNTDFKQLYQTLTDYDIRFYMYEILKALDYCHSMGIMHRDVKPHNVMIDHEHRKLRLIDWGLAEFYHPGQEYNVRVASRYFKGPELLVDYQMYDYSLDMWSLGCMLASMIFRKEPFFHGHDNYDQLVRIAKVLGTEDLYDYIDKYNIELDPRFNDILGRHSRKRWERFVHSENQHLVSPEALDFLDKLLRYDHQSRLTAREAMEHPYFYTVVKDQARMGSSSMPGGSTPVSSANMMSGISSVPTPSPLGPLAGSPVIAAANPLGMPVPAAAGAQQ

[11] = molecular target: T11, CSNK2A2 (Homo sapiens, UniProt P19784)
T11 construct: purchased DiscoverX (KINOMEscan)
T11 sequence (P19784 whole entry): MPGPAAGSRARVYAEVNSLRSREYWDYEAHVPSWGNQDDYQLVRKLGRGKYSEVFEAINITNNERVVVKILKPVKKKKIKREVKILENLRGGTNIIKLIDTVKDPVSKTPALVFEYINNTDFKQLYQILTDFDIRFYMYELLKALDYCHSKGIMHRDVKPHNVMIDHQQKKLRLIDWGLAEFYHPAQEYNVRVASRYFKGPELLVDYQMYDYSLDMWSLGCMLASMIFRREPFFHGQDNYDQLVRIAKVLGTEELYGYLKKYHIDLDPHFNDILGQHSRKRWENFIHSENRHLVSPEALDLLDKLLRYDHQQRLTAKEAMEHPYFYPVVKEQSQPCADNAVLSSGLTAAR

[12] = molecular target: T12, DCAMKL3 (Homo sapiens, UniProt Q9C098)
T12 construct: purchased DiscoverX (KINOMEscan)

[13] = molecular target: T13, DDR2 (Homo sapiens, UniProt Q16832)
T13 construct: purchased DiscoverX (KINOMEscan)

[14] = molecular target: DYRK1A (Homo sapiens, UniProt Q13627)
[15] = molecular target: T14, EGFR (Homo sapiens, UniProt P00533)
T14 construct: purchased DiscoverX (KINOMEscan)
T14 sequence (P00533 25-1210): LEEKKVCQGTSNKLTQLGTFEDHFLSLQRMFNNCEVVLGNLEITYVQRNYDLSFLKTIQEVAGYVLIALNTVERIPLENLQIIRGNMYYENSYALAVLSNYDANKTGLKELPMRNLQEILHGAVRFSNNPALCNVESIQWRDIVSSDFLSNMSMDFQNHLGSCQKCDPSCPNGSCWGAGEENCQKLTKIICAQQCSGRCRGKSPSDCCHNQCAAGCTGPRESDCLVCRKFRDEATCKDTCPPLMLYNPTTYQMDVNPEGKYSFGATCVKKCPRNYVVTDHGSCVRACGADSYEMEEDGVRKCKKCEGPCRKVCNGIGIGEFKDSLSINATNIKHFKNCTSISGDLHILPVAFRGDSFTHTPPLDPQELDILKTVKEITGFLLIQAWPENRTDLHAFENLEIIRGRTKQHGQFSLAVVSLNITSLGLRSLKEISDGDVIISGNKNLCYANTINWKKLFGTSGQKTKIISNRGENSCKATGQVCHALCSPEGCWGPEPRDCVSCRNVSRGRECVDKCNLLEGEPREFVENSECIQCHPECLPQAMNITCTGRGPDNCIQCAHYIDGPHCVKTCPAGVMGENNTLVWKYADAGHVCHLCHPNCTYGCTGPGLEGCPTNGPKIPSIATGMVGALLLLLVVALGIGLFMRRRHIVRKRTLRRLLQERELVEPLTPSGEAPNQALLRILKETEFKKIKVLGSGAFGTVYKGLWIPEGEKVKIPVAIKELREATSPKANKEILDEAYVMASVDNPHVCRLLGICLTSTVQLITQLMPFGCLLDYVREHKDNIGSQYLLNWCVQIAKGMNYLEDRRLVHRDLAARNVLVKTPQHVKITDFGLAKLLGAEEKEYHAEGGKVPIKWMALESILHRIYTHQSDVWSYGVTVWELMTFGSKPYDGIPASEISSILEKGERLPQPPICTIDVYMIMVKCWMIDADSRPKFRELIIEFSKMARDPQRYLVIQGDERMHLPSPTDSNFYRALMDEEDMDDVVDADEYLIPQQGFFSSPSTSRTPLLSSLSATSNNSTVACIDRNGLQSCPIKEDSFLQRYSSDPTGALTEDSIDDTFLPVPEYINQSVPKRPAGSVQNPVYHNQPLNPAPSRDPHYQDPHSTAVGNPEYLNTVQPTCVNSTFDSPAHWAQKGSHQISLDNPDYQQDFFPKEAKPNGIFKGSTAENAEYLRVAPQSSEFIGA

[16] = molecular target: T15, EPHA1 (Homo sapiens, UniProt P21709)
T15 construct: purchased DiscoverX (KINOMEscan)

[17] = molecular target: T16, EPHA3 (Homo sapiens, UniProt P29320)
T16 construct: purchased DiscoverX (KINOMEscan)

[18] = molecular target: T17, ERK2 (Homo sapiens, UniProt P28482)
T17 construct: purchased DiscoverX (KINOMEscan)

[19] = molecular target: T18, FAK (Homo sapiens, UniProt Q05397)
T18 construct: purchased DiscoverX (KINOMEscan)

[20] = molecular target: T19, FLT3 (Homo sapiens, UniProt P36888)
T19 construct: purchased DiscoverX (KINOMEscan)

[21] = molecular target: T20, HIPK1 (Homo sapiens, UniProt Q86Z02)
T20 construct: purchased DiscoverX (KINOMEscan)

[22] = molecular target: T21, IKK-beta (Homo sapiens, UniProt O14920)
T21 construct: purchased DiscoverX (KINOMEscan)

[23] = molecular target: T22, IRAK4 (Homo sapiens, UniProt Q9NWZ3)
T22 construct: purchased DiscoverX (KINOMEscan)

[24] = molecular target: T23, JAK1(JH2domain-pseudokinase) (Homo sapiens, UniProt P23458)
T23 construct: JAK1(JH2domain-pseudokinase); purchased DiscoverX (KINOMEscan)

[25] = molecular target: T24, JAK3(JH1domain-catalytic) (Homo sapiens, UniProt P52333)
T24 construct: JAK3(JH1domain-catalytic); purchased DiscoverX (KINOMEscan)

[26] = molecular target: T25, KIT(D816H) (Homo sapiens, UniProt P10721, D816H)
T25 construct: purchased DiscoverX (KINOMEscan)

[27] = molecular target: T26, KIT(V559D,T670I) (Homo sapiens, UniProt P10721, T670I/V559D)
T26 construct: purchased DiscoverX (KINOMEscan)

[28] = molecular target: T27, MAP4K5 (Homo sapiens, UniProt Q9Y4K4)
T27 construct: purchased DiscoverX (KINOMEscan)

[29] = molecular target: T28, MEK1 (Homo sapiens, UniProt Q02750)
T28 construct: purchased DiscoverX (KINOMEscan)

[30] = molecular target: T29, MET (Homo sapiens, UniProt P08581)
T29 construct: purchased DiscoverX (KINOMEscan)

[31] = molecular target: T30, MST3 (Homo sapiens, UniProt Q9Y6E0)
T30 construct: purchased DiscoverX (KINOMEscan)

[32] = molecular target: T31, NEK2 (Homo sapiens, UniProt P51955)
T31 construct: purchased DiscoverX (KINOMEscan)

[33] = molecular target: T32, SIK (Homo sapiens, UniProt P57059)
T32 construct: purchased DiscoverX (KINOMEscan)

[34] = molecular target: T33, TEC (Homo sapiens, UniProt P42680)
T33 construct: purchased DiscoverX (KINOMEscan)
T33 sequence (P42680 whole entry): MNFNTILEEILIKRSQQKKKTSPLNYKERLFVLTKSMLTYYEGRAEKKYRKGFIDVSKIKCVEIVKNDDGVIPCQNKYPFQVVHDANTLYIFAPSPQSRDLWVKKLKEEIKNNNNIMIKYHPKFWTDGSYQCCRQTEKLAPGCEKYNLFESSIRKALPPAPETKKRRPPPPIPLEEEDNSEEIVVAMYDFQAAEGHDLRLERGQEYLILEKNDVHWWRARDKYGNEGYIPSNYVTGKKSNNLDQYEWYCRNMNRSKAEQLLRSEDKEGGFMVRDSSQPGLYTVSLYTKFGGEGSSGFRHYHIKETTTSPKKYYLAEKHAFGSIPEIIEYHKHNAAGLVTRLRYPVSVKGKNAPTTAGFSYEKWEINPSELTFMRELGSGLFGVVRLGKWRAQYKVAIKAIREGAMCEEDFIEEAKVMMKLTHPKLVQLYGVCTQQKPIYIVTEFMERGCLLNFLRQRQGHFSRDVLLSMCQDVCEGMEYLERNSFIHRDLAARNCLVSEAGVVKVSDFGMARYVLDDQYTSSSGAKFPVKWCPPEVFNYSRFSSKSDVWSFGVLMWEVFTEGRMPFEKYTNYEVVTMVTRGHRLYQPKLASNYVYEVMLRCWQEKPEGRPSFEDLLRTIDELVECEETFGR

[35] = molecular target: T34, TGFBR1 (Homo sapiens, UniProt P36897)
T34 construct: purchased DiscoverX (KINOMEscan)

[36] = molecular target: T35, ZAP70 (Homo sapiens, UniProt P43403)
T35 construct: purchased DiscoverX (KINOMEscan)

COc1cc(/C=C2\N=C(N)NC2=O)ccc1O [Polyandrocarpamine A]
Score [1]: 100 | Score [2]: 100 | Score [3]: 100 | Score [4]: 100 | Score [5]: 42 | Score [6]: 90 | Score [7]: 91 | Score [8]: 100 | Score [9]: 100 | Score [10]: 12 | Score [11]: 26 | Score [12]: 94 | Score [13]: 69 | Score [14]: 3 | Score [15]: 99 | Score [16]: 100 | Score [17]: 87 | Score [18]: 100 | Score [19]: 94 | Score [20]: 100 | Score [21]: 52 | Score [22]: 100 | Score [23]: 46 | Score [24]: 92 | Score [25]: 84 | Score [26]: 100 | Score [27]: 85 | Score [28]: 100 | Score [29]: 100 | Score [30]: 100 | Score [31]: 100 | Score [32]: 100 | Score [33]: 100 | Score [34]: 98 | Score [35]: 100 | Score [36]: 100
